Test results reported in patent publication US20020150912A1, “Reporter system for cell surface receptor-ligand binding” (priority 2000, published 2002).
Like-named read-outs stand apart in the source and are kept apart here.

Tests used:
HeLa cells = experiment: Luciferase assay of HeLa cells transiently transfected with prototypic reporter plasmids; type: cell-based; details: Homo sapiens, 10 h, 100 nM PMA, or 100 nM PMA and 10^−6 M thapsigargin, read-out: Amplification value
Experimental: (§1) Cells electroporated for transient expression were stimulated with 100 nM PMA for 10 hours. Amplification was calculated as the ratio between the relative luminescence units (RLU) of stimulated and non-stimulated cells. Results are expressed as mean values+SEM of three to four independent transfection experiments each performed in triplicate; n.d.=not determined.
(§2) The medium was removed and cell lysis buffer added. Plates were stored at −70° C. until further analysis.
(§3) The prototypic reporter plasmids (pcFUS2; pcFUS2-6xSTAT/NFκB; pcFUS3 and pGL3-12xSTAT/NFκB) were used to transfect HeLa cells transiently by electroporation. Cells were stimulated 24 h post transfection with 100 nM PMA or 100 nM PMA and 10^−6 M thapsigargin or treated as controls. After 10 h of incubation, the cells were lysed and assayed.

[1] = tested on: reporter plasmids in HeLa cells; experiment: HeLa cells transiently transfected with reporter plasmids, luciferase amplification; type: cell-based; details: 100 nM PMA, 10^−6 M thapsigargin where added, 10 h, ratio of RLU, stimulated to non-stimulated cells
Experimental: as §1, §2, §3

chemokine receptor, CCR5 [2] = target: T1, chemokine receptor, CCR5 (Homo sapiens, UniProt P51681); experiment: HF1pCCR5 reporter cell luciferase assay; type: cell-based; design: All receptor ORFs were inserted into the pIRESpuro vector (Clontech) by standard techniques; expressed in transfected cells; host or cells: HeLa-derived HF1 reporter cells (HF1pCCR5), pIRESpuro vector; details: CCR5 stably expressed in HF1 reporter cells; read-out: EC50 (agonist concentration giving half maximum effect)
T1 sequence (P51681 whole entry): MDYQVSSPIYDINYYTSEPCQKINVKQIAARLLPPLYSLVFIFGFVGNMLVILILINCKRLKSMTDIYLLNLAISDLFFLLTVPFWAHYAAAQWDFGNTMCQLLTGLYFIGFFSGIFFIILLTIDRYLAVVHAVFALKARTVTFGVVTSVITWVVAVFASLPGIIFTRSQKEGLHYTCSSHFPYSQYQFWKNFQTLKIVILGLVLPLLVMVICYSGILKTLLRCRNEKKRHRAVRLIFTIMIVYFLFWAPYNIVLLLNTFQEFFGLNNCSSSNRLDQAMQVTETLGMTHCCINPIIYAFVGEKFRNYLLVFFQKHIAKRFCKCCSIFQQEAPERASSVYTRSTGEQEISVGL

chemokine receptor, CCR5 [3] = target: T1, chemokine receptor, CCR5; experiment: cell-based or functional assay
[4] = tested on: endogenous ATP receptors present in the HeLa cells; experiment: HF1 reporter cell luciferase assay, endogenous ATP receptors; type: cell-based; details: stimulation for 16 hours, read-out: EC50, TRE-mediated luciferase response
Experimental: FIG. 5 illustrates the response of endogenous ATP receptors present in the HeLa cells used to establish a reporter cell line, HF1, of the invention.
A. Dose-response curve following stimulation with varying concentrations of ATP for 16 hours. […] Error bars indicate± SEM.
as §2

[5] = plasmid pcFUS3 (6 × STAT/NFκB; 9 × AP-1)

## CCCCCCCCCCCCCC(=O)O[C@@H]1[C@@H](C)[C@@]2(O)[C@@H](C=C(CO)C[C@]3(O)C(=O)C(C)=C[C@@H]23)[C@@H]2C(C)(C)[C@]12OC(C)=O [PMA]
HeLa cells; plasmid pGL3-12 × STAT/NFκB
  fold induction at 0.1 µM: 4.16 ± 2
HeLa cells; plasmid pcFUS2 (9 × AP-1)
  fold induction at 0.1 µM: 2.53 ± 2
HeLa cells; plasmid pcFUS2-6 × STAT/NFκB
  fold induction at 0.1 µM: 3.78 ± 1.44
HeLa cells; [5]
  fold induction at 0.1 µM: 7.37 ± 3.29
[1]; plasmid pGL3-12 × STAT/NFκB
  Amplification value: 4.16 ± 2.00
[1]; plasmid pcFUS2 (9 × AP-1)
  Amplification value: 2.53 ± 2.00
[1]; plasmid pcFUS2-6 × STAT/NFκB
  Amplification value: 3.78 ± 1.44
[1]; [5]
  Amplification value: 7.37 ± 3.29

## RANTES: a peptide (having the sequence RANTES), agonist of the chemokine receptor CCR5
Chemokine receptor, CCR5 [2]
  EC50: 111 nM

## RANTES (from UniProt P13501 24-91) (ligand)
Chemokine receptor, CCR5 [3]
  EC50 (agonist concentration giving half maximum effect), luciferase reporter in HF1 cells stably expressing CCR5: 111 nM

## Nc1ncnc2c1ncn2[C@@H]1O[C@H](COP(=O)(O)OP(=O)(O)OP(=O)(O)O)[C@@H](O)[C@H]1O [ATP]
[4]
  EC50: 107000 nM
